In patent publication US9339486B2, “Heterocyclic modulators of cannabinoid receptors” (THE CLEVELAND CLINIC FOUNDATION, priority 2008, dated 2016):
Like-named read-outs stand apart in the source and are kept apart here.

What was measured:
rat CB1 (rCB1) = rat CB1 (rCB1) (Rattus norvegicus (Rat), UniProt P20272); test: cAMP activation assay rCB1; type: cell-based
Procedure: The test was performed in 96 well plates. For testing, 12 μl of cells (2×10^3 cells/well) were mixed with 12 μl of agonist at increasing concentrations. […] The plates were then incubated for 30 min at room temperature. After addition of the lysis buffer, cAMP concentrations were estimated, according to the manufacturer specification, with the HTRF kit from Cis-Bio International (Catalogue number 62AM2PEB).

naïve rats = test: Open field chamber testing; type: in vivo, rat; conditions: i.p.: Example 3 15 mg/kg, WIN 55,212-2 7 mg/kg, haloperidol 1 mg/kg
Procedure: The automated open-field chamber (Med Associates ENV-515 Test Environment, St. Albans, Vt.) 43.2×43.2×30.5 cm (L×W×H) equipped with three pairs of 16 infrared arrays that continually monitored the animal's movement was used to determine potential CNS effects of the compound of Example 3, WIN55212-2, and haloperidol in naïve rats. Rats were individually tested 15 min after i.p. drug administration. The infrared beams were set 2.5 cm apart horizontally and at a height of 3 cm above the floor, with the rearing array set at 12 cm from the floor. The area in the box was divided into 4 equal quadrants (zones), with data collected within each quadrant and across quadrants (zone entries). An ambulatory movement was defined as a motion of at least 5 cm and was coded by quadrant. Vertical movements were counted when the rat moved vertically a minimum of 12 cm from the floor. Zone entries were defined as an entry into a zone (from another zone). Entry into a zone was counted when the rat was far enough into the zone to break 2 sets of photoelectric beams for the new zone beams during an ambulatory movement.

[1] = tested on: paclitaxel-induced neuropathic pain model; test: animal or person; type: in vivo, rat; conditions: for ED50: Rattus norvegicus, ip
Procedure: Groups of rats received daily i.p. injections of either vehicle or 1.0 mg/kg paclitaxel daily for four consecutive days for a final cumulative dose of 4 mg/kg; using an injection volume of 1 ml/kg. Polomano, R. C., et al., A Painful Peripheral Neuropathy in the Rat Produced by the Chemotherapeutic Drug, Paclitaxel, Pain, 2001, 94:293-304. The vehicle used in our experiments was the same vehicle used clinically for paclitaxel injections and is composed of a mixture of 10% saline and Cremophor EL® and […]. Baseline responses to mechanical stimulation of the hindpaw (see below) were established on day zero and continued daily until the development of neuropathy was confirmed.
Rats were placed in a compartment with a wire mesh bottom and allowed to acclimate for a minimum of 30 min before testing. Mechanical sensitivity was assessed using a series of Von Frey filaments with logarithmic incremental stiffness (0.41, 0.70, 1.20, 2.00, 3.63, 5.50, 8.50, and 15.1 g) (Stoelting, Wood Dale, Ill.) as previously described, and 50% probability withdrawal thresholds were calculated with the up-down method. Chaplan, S. R., et al., Quantitative Assessment of Tactile Allodynia in the Rat Paw, J. Neurosci. Methods, 1994, 53:55-63; Dixon, W., The Up-and-Down Method for Small Samples, J. Am. Stat. Assoc., 1965, 60:967-78. In brief, beginning with the 2.0-g probe, filaments were applied to the plantar surface of a hind paw for 6-8 s, in an ascending or descending order after a negative or positive withdrawal response, respectively. Six consecutive responses from the first change in the response were used to calculate the withdrawal threshold (in grams). In cases where response thresholds fell outside the range of detection, 15.00 and 0.25 g were, respectively, assigned for continuous negative or positive responses to the limit of stimuli. The percent maximal possible effect (% MPE) was calculated as ([postdrug threshold−baseline threshold]/[cutoff threshold (15 g)−baseline threshold])×100.
To determine sensitivity to noxious heat, rats were placed in plexiglass enclosures on a transparent glass surface maintained at 30° C. and allowed to acclimate for 30 min. A thermal testing apparatus, consisting of a heat-emitting projector lamp and an electronic timer, was used. The device was activated after the lamp is placed directly beneath the planter surface of the hindpaw. The paw withdrawal latency in response to the radiant heat was recorded by a digital timer. A cutoff of 30 s was used to prevent potential tissue damage. After the baseline was measured, three groups of naïve rats (n=10) received 1.0, 3.0, or 10 mg/kg of the compound of Example 3 i.p. Response latencies were determined twice for each rat before drug injection and at 5, 10, 15, 30, 45, 60, 90 and 120 min after IP injection. The percent maximal possible effect (% MPE) was calculated as ([postdrug latency−baseline latency]/[cutoff time (30 s)−baseline latency])×100.
Statistical analyses were carried out using BMDP 2007 (Statistical Solutions, Saugus, Mass., USA) and Graph Pad Prism (version 4.03; Graph Pad Software Inc., San Diego, Calif., USA). Data were analyzed using one-way ANOVA, repeated measures ANOVA, or t-test where appropriate. If ANOVA was significant, Tukey-Kramer post hoc analysis was used for multiple group comparison. Area under the curve (AUC) was calculated using the trapezoidal rule. The results are presented as mean±s.e. mean and were considered significant at P<0.05. Analyses of the dose-response curves and statistics were obtained using the pharmacologic software programs of Tallarida and Murray and included calculation of the ED50 values and their 95% confidence intervals (CI). Tallarida, R. J., et al., Manual of Pharmacologic Calculations With Computer Programs, Second ed. New York: Springer-Verlag, 1987.

CC1(Cc2ccccc2)COc2cc(C(=O)N3CCCCC3)ccc21 (stereo not shown) [Example 3, 3-benzyl-3-methyl-2,3-dihydrobenzofuran-6-carboxylic acid-piperidine amide]
activity at rCB1 receptors (rat CB1 (rCB1)): did not exhibit any activity
EC50 (rat CB1 (rCB1); read-out: Agonist EC50 (mean ± s.e. mean) cAMP activation assays rCB1): > 10 µM
exploratory behavior in the open field (distance traveled, ambulatory time, rearing, zone entries) (naïve rats): absence of psychoactive cannabinoid effect
ED50 ([1]; 20 min, read-out: ED50 for suppressing thermal hyperalgesia): 13.5 mg/kg
ED50 ([1]; read-out: ED50 tactile allodynia (% MPE withdrawal threshold AUC)): 24 mg/kg
time of maximal suppression ([1]; i.p.): 20 min
effect on paclitaxel-evoked thermal hyperalgesia and mechanical allodynia relative to vehicle ([1]; i.p., dose-dependent): suppressed
